According to ChEMBL document CHEMBL1201862, “PubChem BioAssay data set” (2004):
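Compound exposure: 48 hours, 5 concentrations, 96-well plates. Here, GI50 denotes the concentration required for 50% inhibition of growth.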 Active and inactive are the calls of the source. Rule as the data show it: active = GI50 up to about 1.1 µM and inactive = higher.

How the values were obtained:
Test in all cases: growth of human tumour cells (NCI), 48 h
SK-OV-3 = system: SK-OV-3
NCI-H226 = system: NCI-H226
OVCAR-3 = system: OVCAR-3
KM12 = system: KM12
SNB-75 = system: SNB-75
TK-10 = system: TK-10
A549 = system: A549
UACC-62 = system: UACC-62
MDA-N = system: MDA-N
DU-145 = system: DU-145
MOLT-4 = system: MOLT-4
SW-620 = system: SW-620
HCT-116 = system: HCT-116
A498 = system: A498
786-0 = system: 786-0
SNB-19 = system: SNB-19
PC-3 = system: PC-3
CCRF-CEM = system: CCRF-CEM
SF-295 = system: SF-295
SF-539 = system: SF-539

Row | Compound | GI50 (SK-OV-3) | GI50 (NCI-H226) | GI50 (OVCAR-3) | GI50 (KM12) | GI50 (SNB-75) | GI50 (TK-10) | GI50 (A549) | GI50 (UACC-62) | GI50 (MDA-N) | GI50 (DU-145) | GI50 (MOLT-4) | GI50 (SW-620) | GI50 (HCT-116) | GI50 (A498) | GI50 (786-0) | GI50 (SNB-19) | GI50 (PC-3) | GI50 (CCRF-CEM) | GI50 (SF-295) | GI50 (SF-539)
1 | CCCCCCCCCC(=O)OCC1(CO)C/C(=C/CC(C(C)C)C(C)C)C(=O)O1 (stereo not drawn) | > 100 µM (inactive) | 74.5 µM (inactive) | > 100 µM (inactive) | 10.2 µM (inactive) | 78 µM (inactive) | 77.6 µM (inactive) | 26.6 µM (inactive) | 49.2 µM (inactive) | 87.1 µM (inactive) | 71 µM (inactive) | 14.5 µM (inactive) | 26.9 µM (inactive) | 33.5 µM (inactive) | 53.3 µM (inactive) | 35.7 µM (inactive) | 32.6 µM (inactive) | 42.4 µM (inactive) | 14.9 µM (inactive) | 42.4 µM (inactive) | –
2 | COc1ccc(NC(C)=O)cc1N1C(=O)/C(=C\c2cccc(Oc3ccccc3)c2)SC1c1ccccc1 (stereo not drawn) | 49 µM (inactive) | 82.2 µM (inactive) | 21.8 µM (inactive) | 37.6 µM (inactive) | 38.6 µM (inactive) | 49.3 µM (inactive) | 40.4 µM (inactive) | 26.7 µM (inactive) | 26.2 µM (inactive) | 35.3 µM (inactive) | 10.1 µM (inactive) | 21.6 µM (inactive) | 11.6 µM (inactive) | 56.4 µM (inactive) | 24.3 µM (inactive) | 69.3 µM (inactive) | 21.7 µM (inactive) | 10.3 µM (inactive) | 28.4 µM (inactive) | –
3 | Cc1nc2c(o1)C(=O)c1ccccc1/C2=N\c1ccccc1 | 17.4 µM (inactive) | 13.6 µM (inactive) | 1.59 µM (inactive) | 6.07 µM (inactive) | 2.12 µM (inactive) | 20.7 µM (inactive) | – | 2.46 µM (inactive) | 0.292 µM (active) | 1.74 µM (inactive) | – | 2.58 µM (inactive) | 2.17 µM (inactive) | > 10 µM (inactive) | 8.38 µM (inactive) | 3.96 µM (inactive) | 2.03 µM (inactive) | 4.04 µM (inactive) | 4.53 µM (inactive) | 2.9 µM (inactive)
4 | CCC1CCC2c3c([nH]c4ccc(C)cc34)C3C(=O)N(N(C)C)C(=O)C3C2C1 (stereo not drawn) | > 100 µM (inactive) | > 72.4 µM (inactive) | 0.787 µM (active) | 6.52 µM (inactive) | – | 32.4 µM (inactive) | 15.9 µM (inactive) | 17.6 µM (inactive) | 1.09 µM (active) | 29.9 µM (inactive) | 14.5 µM (inactive) | 13.8 µM (inactive) | 7.36 µM (inactive) | > 100 µM (inactive) | 7.24 µM (inactive) | 16.9 µM (inactive) | 6.22 µM (inactive) | 12.7 µM (inactive) | 5.11 µM (inactive) | 18.2 µM (inactive)
5 | O=C1c2c(ccc3c2CCC3)CC12Cc1cc3c(cc1C2)CCC3 | > 100 µM (inactive) | > 100 µM (inactive) | > 100 µM (inactive) | > 100 µM (inactive) | 87.7 µM (inactive) | > 100 µM (inactive) | > 100 µM (inactive) | – | > 100 µM (inactive) | > 100 µM (inactive) | > 100 µM (inactive) | > 100 µM (inactive) | > 100 µM (inactive) | > 100 µM (inactive) | > 100 µM (inactive) | > 100 µM (inactive) | > 100 µM (inactive) | > 100 µM (inactive) | > 100 µM (inactive) | > 100 µM (inactive)
6 | Cn1c(=O)sc2cc(C(=S)N3CCC(Cc4ccccc4)CC3)ccc21 | 58.5 µM (inactive) | 15.3 µM (inactive) | 53.8 µM (inactive) | 34.7 µM (inactive) | – | > 100 µM (inactive) | – | 61.5 µM (inactive) | 72.1 µM (inactive) | 84.5 µM (inactive) | 20.9 µM (inactive) | > 100 µM (inactive) | 45.9 µM (inactive) | > 100 µM (inactive) | > 100 µM (inactive) | > 100 µM (inactive) | 37.9 µM (inactive) | 25.2 µM (inactive) | 27.3 µM (inactive) | > 100 µM (inactive)
7 | CC(CO)(CBr)COC(=O)c1cc(Br)c(N)c(Br)c1 (stereo not drawn) | 83.9 µM (inactive) | > 100 µM (inactive) | > 100 µM (inactive) | > 100 µM (inactive) | – | 43 µM (inactive) | > 100 µM (inactive) | > 100 µM (inactive) | 59.7 µM (inactive) | 48.8 µM (inactive) | > 100 µM (inactive) | > 100 µM (inactive) | 94 µM (inactive) | 62.2 µM (inactive) | 50.1 µM (inactive) | 54.7 µM (inactive) | > 100 µM (inactive) | > 100 µM (inactive) | 37.4 µM (inactive) | > 100 µM (inactive)
8 | CC(C)[C@H](O)C(=O)N[C@H]1Cc2ccc3c(c2)[C@]24C5=C(N=C(O5)[C@H](C(C)C)NC1=O)c1nc(Cl)c(o1)-c1c(Cl)[nH]c5cccc(c15)-c1cccc2c1N[C@H]4O3 | 0.001 µM (active) | 0.00346 µM (active) | 0.00253 µM (active) | 0.00607 µM (active) | – | 0.0818 µM (active) | 0.0148 µM (active) | – | 0.00162 µM (active) | 0.00524 µM (active) | 0.001 µM (active) | 0.00671 µM (active) | 0.00339 µM (active) | 1.27 µM (inactive) | 0.00535 µM (active) | 0.00644 µM (active) | 0.00393 µM (active) | 0.00103 µM (active) | 0.0167 µM (active) | 0.00403 µM (active)
9 | Cc1cn(C2CC(Br)C(COC(c3ccccc3)(c3ccccc3)c3ccccc3)O2)c(=O)[nH]c1=O (stereo not drawn) | – | 19.2 µM (inactive) | 12.6 µM (inactive) | 6.71 µM (inactive) | 11.5 µM (inactive) | 14.7 µM (inactive) | 10.5 µM (inactive) | 12.2 µM (inactive) | 14.9 µM (inactive) | 14.5 µM (inactive) | 8.17 µM (inactive) | 14.3 µM (inactive) | 8.2 µM (inactive) | 15.3 µM (inactive) | 14.3 µM (inactive) | 16.3 µM (inactive) | 5.73 µM (inactive) | 4.88 µM (inactive) | 9.68 µM (inactive) | 17.2 µM (inactive)
10 | CN(C)CCCN1c2ccccc2CCc2ccc([N+](=O)[O-])cc21 | 37.2 µM (inactive) | 26.2 µM (inactive) | 34.5 µM (inactive) | 18.1 µM (inactive) | – | 18.7 µM (inactive) | 34.6 µM (inactive) | 16.1 µM (inactive) | 18.5 µM (inactive) | 18.4 µM (inactive) | 33.3 µM (inactive) | 38.5 µM (inactive) | 26.9 µM (inactive) | 17.7 µM (inactive) | 33 µM (inactive) | 45.1 µM (inactive) | 34.8 µM (inactive) | 39.2 µM (inactive) | 17.9 µM (inactive) | –
11 | O=C(Nc1c(Cl)cccc1Cl)c1c(Cl)c(Cl)c(Cl)c(Cl)c1-c1nc2ccccc2[nH]1 | 0.0507 µM (active) | 14.5 µM (inactive) | 25.4 µM (inactive) | 0.155 µM (active) | 0.313 µM (active) | – | 0.601 µM (active) | 25.4 µM (inactive) | 36 µM (inactive) | 62.2 µM (inactive) | 75.3 µM (inactive) | 64.6 µM (inactive) | 43.5 µM (inactive) | 11.4 µM (inactive) | 36.4 µM (inactive) | – | > 100 µM (inactive) | > 100 µM (inactive) | 0.0468 µM (active) | 0.535 µM (active)
12 | CNc1nnc(CCCCCCCCc2nnc(NC)o2)o1 | > 100 µM (inactive) | > 100 µM (inactive) | 25.9 µM (inactive) | > 100 µM (inactive) | > 100 µM (inactive) | > 100 µM (inactive) | > 100 µM (inactive) | – | > 100 µM (inactive) | > 100 µM (inactive) | 34.7 µM (inactive) | 40.7 µM (inactive) | 20.3 µM (inactive) | > 100 µM (inactive) | 21.1 µM (inactive) | > 100 µM (inactive) | > 100 µM (inactive) | 16.2 µM (inactive) | 75.2 µM (inactive) | > 100 µM (inactive)
13 | Cn1c(=O)c2[nH]c(-n3nc(-c4ccccc4)cc3N)nc2n(C)c1=O | 4.04 µM (inactive) | 5.55 µM (inactive) | 5.35 µM (inactive) | 6.58 µM (inactive) | – | 12.4 µM (inactive) | 5.78 µM (inactive) | 6.37 µM (inactive) | 11.7 µM (inactive) | 7.93 µM (inactive) | 7.14 µM (inactive) | – | 6.49 µM (inactive) | 11.1 µM (inactive) | 6.18 µM (inactive) | – | 19.7 µM (inactive) | 2.64 µM (inactive) | 4.92 µM (inactive) | 5.08 µM (inactive)
14 | Cc1n[nH]c(=O)c2c3c([nH]c12)-c1ccccc1C3 | > 100 µM (inactive) | 51.1 µM (inactive) | > 100 µM (inactive) | > 100 µM (inactive) | 18.7 µM (inactive) | 63.4 µM (inactive) | > 100 µM (inactive) | – | > 100 µM (inactive) | > 100 µM (inactive) | 39.9 µM (inactive) | > 100 µM (inactive) | > 100 µM (inactive) | > 100 µM (inactive) | > 100 µM (inactive) | > 100 µM (inactive) | > 100 µM (inactive) | > 100 µM (inactive) | > 100 µM (inactive) | > 100 µM (inactive)
15 | c1ccc(C/C(=N\Nc2nc3ccccc3o2)c2ccccn2)cc1 | 0.0237 µM (active) | < 0.0483 µM (active) | 0.0137 µM (active) | 0.264 µM (active) | – | 0.0668 µM (active) | 0.437 µM (active) | 0.387 µM (active) | 0.355 µM (active) | 0.376 µM (active) | < 0.01 µM (active) | < 0.013 µM (active) | < 0.01 µM (active) | 0.369 µM (active) | < 0.0193 µM (active) | 0.2 µM (active) | < 0.01 µM (active) | < 0.0122 µM (active) | 0.234 µM (active) | 0.114 µM (active)
